Test results published in patent US20170007615A1, “Antibacterial Compounds” (priority 2014, published 2017).
In brackets after ≈: the same amount, converted by molar mass. Read-outs that look alike come from different tables or passages of the source. Blank lines part the entries; values can stand above or below the compound they belong to.

Key:
[1] = test system: S. aureus (ATCC 29213); experiment: Antibacterial activity (MIC), Gram-positive type strain; format: cell-based, Staphylococcus aureus; settings: Staphylococcus aureus, ATCC29213; Table 13
[2] = test system: E. faecalis (ATCC 29212); experiment: as above; format: cell-based, Enteroccocus faecalis; settings: Enterococcus faecalis, ATCC29212; Table 13
[3] = test system: H. influenzae (ATCC 49247); experiment: Antibacterial activity (MIC), Gram-negative type strain; format: cell-based, Haemophilus influenzae; settings: Haemophilus influenzae, ATCC49247; Table 13
[4] = test system: N. gonorrheae (ATCC 49226); experiment: as above; format: cell-based, Neisseria gonorrhoeae; settings: Neisseria gonorrhoeae, ATCC49226; Table 13
[5] = test system: E. coli (ATCC 25922); settings: for MIC of Compound (μg/ml) in the presence of PMBN (128 μg/ml): Table 1, (b) No effect; for MIC of Compound (μg/ml) in the presence of PMBN (32 μg/ml): Table 12, (b) No significant effect
[6] = test system: E. coli (ATCC 25922); experiment: microbe, parasite or virus in culture; settings: Escherichia coli
[7] = ATCC25922, read-out: MIC Compound alone, Table 1
[8] = ATCC25922, read-out: MIC Compound alone, Table 12

Structure (SMILES): CC1COc2c(N3CCN(C)CC3)c(F)cc3c(=O)c(C(=O)O)cn1c23 (centres unmarked) [Ofloxacin, reference compound]
MIC of Compound (μg/ml) in the presence of PMBN (128 μg/ml) [5]: 0.03^(b) μg/ml
effect of the presence of PMBN on activity compared to compound alone ([5]; Table 1 experiment): no effect
MIC of Compound (μg/ml) in the presence of PMBN (32 μg/ml) [5]: 0.03^(b) μg/ml
MIC [6, 7]: 0.03 µg/mL (≈ 0.083 µM)
MIC [6, 8]: 0.03 µg/mL (≈ 0.083 µM)

Structure (SMILES): C[C@@H](O)[C@H]1C(=O)N2C(C(=O)O)=C(S[C@@H]3CN[C@H](C(=O)N(C)C)C3)[C@H](C)[C@H]12 [Meropenem, reference compound]
MIC of Compound (μg/ml) in the presence of PMBN (32 μg/ml) [5]: 0.5^(b) μg/ml
MIC [6, 8]: 0.5 µg/mL (≈ 1.3 µM)

Structure (SMILES): CC(C)(O/N=C(\C(=O)N[C@@H]1C(=O)N2C(C(=O)[O-])=C(C[n+]3ccccc3)CS[C@H]12)c1csc(N)n1)C(=O)O [Ceftazidime, reference compound]
MIC of Compound (μg/ml) in the presence of PMBN (32 μg/ml) [5]: 0.15 µg/mL
MIC [6, 8]: 0.6 µg/mL (≈ 1.1 µM)

Structure (SMILES): COc1cc(Cc2cnc(N)nc2N)cc(OC)c1OC [Trimethoprim, reference compound]
MIC of Compound (μg/ml) in the presence of PMBN (32 μg/ml) [5]: 2^(b) μg/ml
MIC [6, 8]: 0.5 µg/mL (≈ 1.72 µM)

Structure (SMILES): CCNC(=O)Nc1nc2cc(-c3cnc(N4CCC(C)(C(=O)O)CC4)nc3)cc(-c3ccccn3)c2s1 [Example 1 (WO2012/045124), 1-[5-[2-(ethylcarbamoylamino)-7-(2-pyridyl)-1,3-benzothiazol-5-yl]pyrimidin-2-yl]-4-methyl-piperidine-4-carboxylic acid]
MIC of Compound (μg/ml) in the presence of PMBN (128 μg/ml) [5]: 0.5 µg/mL
MIC [6, 7]: > 64 µg/mL

Structure (SMILES): C[C@H]1COc2c(N3CCN(C)CC3)c(F)cc3c(=O)c(C(=O)O)cn1c23 [Levofloxacin, reference compound]
MIC of Compound (μg/ml) in the presence of PMBN (32 μg/ml) [5]: 0.008^(b) μg/ml
MIC [6, 8]: 0.008 µg/mL (≈ 0.0221 µM)

Structure (SMILES): CO/N=C(\C(=O)N[C@@H]1C(=O)N2C(C(=O)O)=C(CSc3nc(=O)c(=O)[nH]n3C)CS[C@H]12)c1csc(N)n1 [Ceftriaxone, reference compound]
MIC of Compound (μg/ml) in the presence of PMBN (32 μg/ml) [5]: 0.06^(b) μg/ml
MIC [6, 8]: 0.06 µg/mL (≈ 0.108 µM)

Structure (SMILES): CCNC(=O)Nc1nc2cc(-c3cccnc3)cc(-c3ncccc3N)c2s1 [Example 94 (WO2007/148093)]
MIC of Compound (μg/ml) in the presence of PMBN (128 μg/ml) [5]: 32 µg/mL
MIC [6, 7]: > 64 µg/mL

Now from value to compound:

MIC [1]: 0.25 µg/mL (≈ 0.501 µM)
MIC [2]: 0.015 µg/mL (≈ 0.0301 µM)
MIC [3]: 0.12 µg/mL (≈ 0.241 µM)
MIC [4]: 0.03 µg/mL (≈ 0.0602 µM)
Structure (SMILES): CCNC(=O)Nc1nc2cc(-c3cnc(NS(=O)(=O)NCC)nc3)cc(-c3ccccn3)c2s1 [Compound A-37, 1-ethyl-3-[5-[2-(ethylsulfamoylamino)pyrimidin-5-yl]-7-(2-pyridyl)-1,3-benzothiazol-2-yl]urea]

MIC [1]: 0.12 µg/mL (≈ 0.222 µM)
MIC [2]: ≤ 0.008 µg/mL
MIC [3]: 0.03 µg/mL (≈ 0.0556 µM)
MIC [4]: ≤ 0.008 µg/mL
Structure (SMILES): CCNC(=O)Nc1nc2cc(-c3cnc(NS(=O)(=O)C4(CO)CC4)nc3)cc(-c3ccc(C)cn3)c2s1 [Compound A-55, N-(5-(2-(3-ethylureido)-7-(5-methylpyridin-2-yl)benzo[d]thiazol-5-yl)pyrimidin-2-yl)-1-(hydroxymethyl)cyclopropane-1-sulfonamide]

MIC [1]: 2 µg/mL (≈ 4.26 µM)
MIC [2]: 0.03 µg/mL (≈ 0.0639 µM)
MIC [3]: 0.015 µg/mL (≈ 0.0319 µM)
MIC [4]: 0.03 µg/mL (≈ 0.0639 µM)
Structure (SMILES): CCNC(=O)Nc1nc2cc(-c3cnc(NS(C)(=O)=O)nc3)cc(-c3ccccn3)c2s1 [Compound A-31, N-(5-(2-(3-ethylureido)-7-(pyridin-2-yl)benzo[d]thiazol-5-yl)pyrimidin-2-yl)methanesulfonamide]

MIC [1]: 0.06 µg/mL (≈ 0.121 µM)
MIC [2]: 0.06 µg/mL (≈ 0.121 µM)
MIC [3]: 0.5 µg/mL (≈ 1.01 µM)
MIC [4]: 0.25 µg/mL (≈ 0.504 µM)
Structure (SMILES): CCNC(=O)Nc1nc2cc(-c3cnc(N4CCCS4(=O)=O)nc3)cc(-c3ccccn3)c2s1 [Compound A-26, 1-(5-(2-(1,1-dioxidoisothiazolidin-2-yl)pyrimidin-5-yl)-7-(pyridin-2-yl)benzo[d]thiazol-2-yl)-3-ethylurea]

MIC [1]: 0.06 µg/mL (≈ 0.124 µM)
MIC [2]: ≤ 0.008 µg/mL
MIC [3]: 0.008 µg/mL (≈ 0.0165 µM)
MIC [4]: ≤ 0.008 µg/mL
Structure (SMILES): CCNC(=O)Nc1nc2cc(-c3cnc(NS(C)(=O)=O)nc3)cc(-c3ccc(C)cn3)c2s1 [Compound A-30, N-(5-(2-(3-ethylureido)-7-(5-methylpyridin-2-yl)benzo[d]thiazol-5-yl)pyrimidin-2-yl)methanesulfonamide]

MIC [1]: 2 µg/mL (≈ 3.44 µM)
MIC [2]: 0.25 µg/mL (≈ 0.431 µM)
MIC [3]: 1 µg/mL (≈ 1.72 µM)
MIC [4]: 0.03 µg/mL (≈ 0.0517 µM)
Structure (SMILES): CCNC(=O)Nc1nc2cc(-c3cnc(NS(=O)(=O)C4CCN(C(C)=O)C4)nc3)cc(-c3ccc(C)cn3)c2s1 (centres unmarked) [Compound A-58, 1-acetyl-N-(5-(2-(3-ethylureido)-7-(5-methylpyridin-2-yl)benzo[d]thiazol-5-yl)pyrimidin-2-yl)pyrrolidine-3-sulfonamide]

MIC of Compound (μg/ml) in the presence of PMBN (128 μg/ml) [5]: 0.5 µg/mL
MIC [6, 7]: > 64 µg/mL
Structure (SMILES): CCNC(=O)Nc1nc2cc(-c3cc(C)n(C(C)c4ccc(C)nc4)c(=O)c3)cc(-c3ccccn3)c2s1 (centres unmarked) [Compound A-4, 1-Ethyl-3-[5-[2-methyl-1-[1-(6-methyl-3-pyridyl)ethyl]-6-oxo-4-pyridyl]-7-(2-pyridyl)-1,3-benzothiazol-2-yl]urea]

MIC of Compound (μg/ml) in the presence of PMBN (128 μg/ml) [5]: 0.25 µg/mL
MIC [6, 7]: > 64 µg/mL
Structure (SMILES): CCNC(=O)Nc1nc2cc(-c3cnc(NC(=O)N4CCCC4)nc3)cc(-c3cc(CN4CCOCC4)ccn3)c2s1 [Compound A-6, N-[5-[2-(Ethylcarbamoylamino)-7-[4-(morpholinomethyl)-2-pyridyl]-1,3-benzothiazol-5-yl]pyrimidin-2-yl]pyrrolidine-1-carboxamide]

MIC of Compound (μg/ml) in the presence of PMBN (128 μg/ml) [5]: 0.12 µg/mL
MIC [6, 7]: > 64 µg/mL
Structure (SMILES): CCNC(=O)Nc1nc2cc(-c3cnc(NS(=O)(=O)C(C)(C)C)nc3)cc(-c3cnc(N(C)C)nc3)c2s1 [Compound A-18, 1-[5-[2-(tert-butylsulfonylamino)pyrimidin-5-yl]-7-[2-(dimethylamino)pyrimidin-5-yl]-1,3-benzothiazol-2-yl]-3-ethyl-urea]

MIC of Compound (μg/ml) in the presence of PMBN (128 μg/ml) [5]: 0.5 µg/mL
MIC [6, 7]: 8 µg/mL (≈ 23.6 µM)
Structure (SMILES): CCNC(=O)Nc1nc2cc(-c3cccnc3)cc(C(=O)OC)c2[nH]1 [Compound A-22, Methyl 2-(ethylcarbamoylamino)-6-(3-pyridyl)-3H-benzimidazole-4-carboxylate, reference compound]

MIC of Compound (μg/ml) in the presence of PMBN (128 μg/ml) [5]: <=.12 μg/ml
MIC [6, 7]: > 64 µg/mL
Structure (SMILES): CCNC(=O)Nc1nc2cc(-c3cc(C)n(Cc4cccc(C)n4)c(=O)c3)cc(-c3ccccn3)c2s1 [Compound A-2, 1-Ethyl-3-[5-[2-methyl-1-[(6-methyl-2-pyridyl)methyl]-6-oxo-4-pyridyl]-7-(2-pyridyl)-1,3-benzothiazol-2-yl]urea]

MIC of Compound (μg/ml) in the presence of PMBN (128 μg/ml) [5]: 0.03 µg/mL
MIC [6, 7]: 2 µg/mL (≈ 3.92 µM)
Structure (SMILES): C=CCS(=O)(=O)Nc1ncc(-c2cc(-c3ccc(C)cn3)c3sc(NC(=O)NCC)nc3c2)cn1 [Compound A-17, 1-[5-[2-(allylsulfonylamino)pyrimidin-5-yl]-7-(5-methyl-2-pyridyl)-1,3-benzothiazol-2-yl]-3-ethyl-urea]

MIC of Compound (μg/ml) in the presence of PMBN (128 μg/ml) [5]: 0.12 µg/mL
MIC [6, 7]: > 64 µg/mL
Structure (SMILES): CCNC(=O)Nc1nc2cc(-c3cnc(NC(=O)N4CC[C@@H](O)C4)nc3)cc(-c3ccc(C)cn3)c2s1 [Compound A-1, (3R)—N-[5-[2-(Ethylcarbamoylamino)-7-(5-methyl-2-pyridyl)-1,3-benzothiazol-5-yl]pyrimidin-2-yl]-3-hydroxy-pyrrolidine-1-carboxamide]

MIC of Compound (μg/ml) in the presence of PMBN (128 μg/ml) [5]: 2 µg/mL
MIC [6, 7]: > 64 µg/mL
Structure (SMILES): CC(C)(C)S(=O)(=O)Nc1ncc(-c2cc(Br)c3sc(N)nc3c2)cn1 [Compound A-102, N-[5-(2-amino-7-bromo-1,3-benzothiazol-5-yl)pyrimidin-2-yl]-2-methyl-propane-2-sulfonamide]
